The source of these data is US7420001B2 (Wyeth, priority 2003, dated 2008).

Molecules are shown by their SMILES. pIC50: −log10 of the molar value. Where two headings read alike, the source gives them in different places.

For experiment [1], the target named is T1, MMP-2 (Homo sapiens, UniProt P08253).
T1 construct: purchased Oncogene Research Products (Calbiochem) PF023
T1 sequence (P08253 110-660): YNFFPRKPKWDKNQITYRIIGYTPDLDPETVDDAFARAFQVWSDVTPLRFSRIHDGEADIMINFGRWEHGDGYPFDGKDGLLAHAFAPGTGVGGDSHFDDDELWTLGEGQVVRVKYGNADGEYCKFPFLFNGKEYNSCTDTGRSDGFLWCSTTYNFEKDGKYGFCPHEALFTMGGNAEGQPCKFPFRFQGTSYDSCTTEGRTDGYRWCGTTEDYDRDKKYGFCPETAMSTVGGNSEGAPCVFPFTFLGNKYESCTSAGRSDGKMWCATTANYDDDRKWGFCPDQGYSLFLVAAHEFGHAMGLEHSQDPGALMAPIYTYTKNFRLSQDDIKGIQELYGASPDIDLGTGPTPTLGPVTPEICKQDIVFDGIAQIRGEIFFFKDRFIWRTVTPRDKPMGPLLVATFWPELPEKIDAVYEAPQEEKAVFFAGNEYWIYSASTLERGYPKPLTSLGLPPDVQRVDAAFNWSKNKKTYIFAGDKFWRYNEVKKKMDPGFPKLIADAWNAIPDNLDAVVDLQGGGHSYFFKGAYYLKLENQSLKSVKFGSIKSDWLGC
The experiment is described as follows: In-vitro fluorescence assay of MMP-2 activity. The format is biochemical. The settings on record: recombinant human MMP-2; read-out: MMP-2 IC50.
Source text: A continuous assay was used in which the substrate is a synthetic peptide containing a fluorescent group (7-methoxycoumarin; Mca) which is quenched by energy transfer to a 2,4-dinitrophenyl group. […] The source of enzyme in the assay was the recombinant human MMP-2 (66 kDa) purchased from Oncogene Research Products (catalog number PF023 from Calbiochem). The substrate used was Mca-PQGL-(3-[2,4-dinitrophenyl]-L-2,3-diaminopropionyl)-AR-OH (denoted as Wammp-5, custom synthesized by AnaSpec, Inc.). The assay buffer consisted of 50 mM Hepes (pH 7.4), 100 mM NaCl, 5 mM CaCl2, and 0.005% Brij-35. […] The enzymatic reactions were initiated by adding the substrate to a final concentration of 20 μM, and mixing 10 times with a pipette. The final DMSO concentration in the assay was 6.0%.
(§1) Plots of the inhibitor concentration vs. the percent inhibition were fit to the following equation: y=(a−d)/[1+(x/c)^b]+d, a general sigmoidal curve with Hill slope, a to d. x is the inhibitor concentration under test. y is the percent inhibition. a is the limiting response as x approaches zero. As x increases without bound, y tends toward its limit d. c is the inflection point (IC50) for the curve. That is, y is halfway between the lower and upper asymptotes when x=c. b is the slope factor or Hill coefficient.

In experiment [2] the target is T2, MMP-13 (Homo sapiens, UniProt P45452).
T2 construct: made in house
The experiment is described as follows: In-vitro fluorescence assay of MMP-13 activity. The format is biochemical.
Procedure: A continuous assay was used in which the substrate is a synthetic peptide containing a fluorescent group (7-methoxycoumarin; Mca) which is quenched by energy transfer to a 2,4-dinitrophenyl group. […] The substrate used was Mca-PQGL-(3-[2,4-dinitrophenyl]-L-2,3-diaminopropionyl)-AR-OH (denoted as Wammp-5, custom synthesized by AnaSpec, Inc.). The assay buffer consisted of 50 mM Hepes (pH 7.4), 100 mM NaCl, 5 mM CaCl2, and 0.005% Brij-35. Each well of black polystyrene 96-well plates contained a 200 μL reaction mixture consisting of assay buffer, purified MMP (final concentration of 0.5 nM, prepared by diluting with the assay buffer), and varied concentrations of inhibitor (prepared by serially diluting a given inhibitor in DMSO in 96-well polypropylene plate). […] The enzymatic reactions were initiated by adding the substrate to a final concentration of 20 μM, and mixing 10 times with a pipette. The final DMSO concentration in the assay was 6.0%.
as §1

[3] abbreviates: recombinant human catalytic domain of MMP-13, read-out: MMP-13 IC50.

Broadly, the pIC50 is the IC50 on a negative log10 scale, so that one unit is a factor of ten.

For the compound `CCc1ccc2oc(C(=O)Nc3ccc(-c4ccc(S(=O)(=O)N[C@H](C(=O)O)C(C)C)cc4)cc3)c(C)c2c1OCc1ccccc1` [Example 89, N-{[4′-({[4-(Benzyloxy)-5-ethyl-3-methyl-1-benzofuran-2-yl]carbonyl}amino)-1,1′-biphenyl-4-yl]sulfonyl}-L-valine], the values for the pIC50 in experiment [1] and in experiment [2] (setting [3]) were 5.36 and 7.17, respectively.
On the same counts, the results for `Cc1c(C(=O)Nc2ccc(-c3ccc(S(=O)(=O)N(C)[C@H](C(=O)O)C(C)C)cc3)cc2)oc2cccc(C#N)c12` [Example 42, L-2-({4′-[(4-Cyano-3-methyl-benzofuran-2-carbonyl)-amino]-biphenyl-4-sulfonyl}-methyl-amino)-3-methyl-butyric acid] are 5.80 and 7.39.
For `C=Cc1cccc2oc(C(=O)Nc3ccc(-c4ccc(S(=O)(=O)N(C)[C@H](C(=O)O)C(C)C)cc4)cc3)c(C)c12` [Example 98, N-methyl-N-[(4′-{[(3-methyl-4-vinyl-1-benzofuran-2-yl)carbonyl]amino}-1,1′-biphenyl-4-yl)sulfonyl]-L-valine], the pIC50 in experiment [1] is 6.05; in experiment [2] (setting [3]), 7.08.
On the same counts, the results for `CC(C)[C@H](NS(=O)(=O)c1ccc(-c2ccc(NC(=O)c3nc4ccccc4o3)cc2)cc1)C(=O)O` [Example 127, (S)-3-Methyl-2-{4′-[(benzooxazole-2-carbonyl)-amino]-biphenyl-4-sulfonylamino}-butyric acid] are 7.33 and 9.10.
Take `Cc1c(C(=O)Nc2ccc(-c3ccc(S(=O)(=O)N[C@H](C(=O)O)C(C)C)cc3)cc2)oc2cccc(OCCNC(=O)OC(C)(C)C)c12` [Example 177, (S)-2-(4′-{[4-(2-tert-Butoxycarbonylamino-ethoxy)-3-methyl-benzofuran-2-carbonyl]-amino}-biphenyl-4-sulfonylamino)-3-methyl-butyric acid]: the negative logarithm of the IC50 (pIC50) is 5.52 in experiment [1] and 7.82 in experiment [2] (setting [3]).
On the same counts, the results for `COc1ccc2oc(C(=O)Nc3ccc(-c4ccc(S(=O)(=O)N[C@H](C(=O)O)C(C)C)cc4)cc3)cc2c1` [Example 104, N-[(4′-{[(5-methoxy-1-benzofuran-2-yl)carbonyl]amino}-1,1′-biphenyl-4-yl)sulfonyl]-L-valine] are 8.82 and 9.15.
`CC(C)C(NS(=O)(=O)c1ccc(-c2ccc(NC(=O)c3cc4cc(NS(C)(=O)=O)ccc4o3)cc2)cc1)C(=O)O` (stereo in doubt) [Example 8, N-({4′-[({5-[(methylsulfonyl)amino]-1-benzofuran-2-yl}carbonyl)amino]-1,1′-biphenyl-4-yl}sulfonyl)-L-valine]: the pIC50 in experiment [1] is 8.41; in experiment [2] (MMP-13 IC50, recombinant human catalytic domain of MMP-13), 9.40.
For `Cc1c(C(=O)Nc2ccc(-c3ccc(S(=O)(=O)N(C)[C@H](C(=O)O)C(C)C)cc3)cc2)oc2cccc(NS(C)(=O)=O)c12` [Example 64, L-2-({4′-[(4-Methanesulfonylamino-3-methyl-benzofuran-2-carbonyl)-amino]-biphenyl-4-sulfonyl}-methyl-amino)-3-methyl-butyric acid], the negative-log IC50 (pIC50) in experiment [1] was 5.16; in experiment [2] (setting [3]), 7.20.
For the compound `CCc1cccc2oc(COc3ccc(-c4ccc(S(=O)(=O)N[C@H](C(=O)O)C(C)C)cc4)cc3)c(C)c12` [Example 146, L-2-[4′-(4-Ethyl-3-methylbenzofuran-2-ylmethoxy)-biphenyl-4-sulfonylamino]-3-methyl butyric acid], the negative-log IC50 (pIC50) is 6.68 in experiment [1] and 8.92 in experiment [2] (setting [3]).
`Cc1c(C(=O)Nc2ccc(-c3ccc(S(=O)(=O)N[C@H](C(=O)O)C(C)C)cc3)cc2)oc2cccc(NS(=O)(=O)c3cccs3)c12` [Example 72, L-3-Methyl-2-(4′-{[3-methyl-4-(thiophene-2-sulfonylamino)-benzofuran-2-carbonyl]-amino}-biphenyl-4-sulfonylamino)-butyric acid]: the figures for the pIC50 in experiment [1] and in experiment [2] (setting [3]) were 5.40 and 8.07, respectively.
On the same counts, the results for `Cc1c(C(=O)Nc2ccc(-c3ccc(S(=O)(=O)N[C@H](C(=O)O)C(C)C)cc3)cc2)oc2cccc(NS(=O)(=O)c3ccccc3)c12` [Example 71, L-2-{4′-[(4-Benzenesulfonylamino-3-methyl-benzofuran-2-carbonyl)-amino]-biphenyl-4-sulfonylamino}-3-methyl-butyric acid] are 5.22 and 8.09.
On the same counts, the results for `Cc1c(C(=O)Nc2ccc(-c3ccc(S(=O)(=O)N[C@H](C(=O)O)C(C)C)cc3)cc2)oc2cccc(CCCC(C)C)c12` [Example 29, L-3-Methyl-2-(4′-{[3-methyl-4-(4-methyl-pentyl)-benzofuran-2-carbonyl]-amino}-biphenyl-4-sulfonylamino)-butyric acid] are 5.03 and 7.43.
On the same counts, the results for `Cc1c(C(=O)Nc2ccc(-c3ccc(S(=O)(=O)N[C@H](C(=O)O)C(C)C)cc3)nc2)oc2cccc(NS(C)(=O)=O)c12` [Example 39, L-2-(4-{5-[(4-Methanesulfonylamino-3-methyl-benzofuran-2-carbonyl)-amino]-pyridin-2-yl}-benzenesulfonylamino)-3-methyl-butyric acid] are 5.12 and 7.52.
Regarding `Cc1cccc2oc(C(=O)Nc3ccc(-c4ccc(S(=O)(=O)N[C@H](C(=O)O)C(C)C)cc4)cc3)nc12` [Example 128, (S)-3-Methyl-2-{4′-[(4-methyl-benzooxazole-2-carbonyl)-amino]-biphenyl-4-sulfonylamino}-butyric acid], the pIC50 is 7.23 in experiment [1] and 8.55 in experiment [2] (setting [3]).
On the same counts, the results for `Cc1c(C(=O)Nc2ccc(-c3ccc(S(=O)(=O)N[C@H](C(=O)O)C(C)C)cc3)cc2)oc2cccc(CCC(C)(C)C)c12` [Example 57, L-2-(4′-{[^4-(3,^3-Dimethyl-butyl)-3-methyl-benzofuran-2-carbonyl]-amino}-biphenyl-4-sulfonylamino)-3-methyl-butyric acid] are 5.15 and 7.03.
For the compound `CC(C)[C@H](NS(=O)(=O)c1ccc(-c2ccc(NC(=O)c3cc4ccccc4s3)cc2)cc1)C(=O)O` [Example 12, 4′-[(Benzo[β]thiophene-2-carbonyl)-amino]-biphenyl-4-sulfonyl-L-valine], the pIC50 in experiment [1] was 6.83; in experiment [2] (setting [3]), 8.21.
In the case of `Cc1c(C(=O)Nc2ccc(-c3ccc(S(=O)(=O)N[C@H](C(=O)O)C(C)C)cc3)cc2)oc2cccc(NC(=O)OC(C)(C)C)c12` [Example 59, L-2-{4′-[(4-tert-Butoxycarbonylamino-3-methyl-benzofuran-2-carbonyl)-amino]-biphenyl-4-sulfonylamino}-3-methyl-butyric acid], the pIC50 in experiment [1] was 5.49; in experiment [2] (setting [3]), 7.49.
As to `Cc1c(C(=O)Nc2ccc(-c3ccc(S(=O)(=O)N[C@H](C(=O)O)C(C)C)cc3)nc2)oc2cccc(C#N)c12` [Example 40, L-2-(4-{5-[(4-Cyano-3-methyl-benzofuran-2-carbonyl)-amino]-pyridin-2-yl}-benzenesulfonylamino)-3-methyl-butyric acid], the negative logarithm of the IC50 (pIC50) in experiment [1] was 5.55; in experiment [2] (setting [3]), 7.79.
On the same counts, the results for `Cc1c(C(=O)Nc2ccc(-c3ccc(S(=O)(=O)N[C@H](C(=O)O)C(C)C)cc3)cc2)oc2cccc(OCc3cccnc3)c12` [Example 160, L-3-Methyl-2-(4′-{[3-methyl-4-(pyridin-3-ylmethoxy)-benzofuran-2-carbonyl]-amino}-biphenyl-4-sulfonylamino)-butyric acid] are 5.34 and 8.02.
As to `Cc1c(C(=O)Nc2ccc(-c3ccc(S(=O)(=O)N[C@H](C(=O)O)C(C)C)cc3)cc2)oc2cccc(-c3ccncc3)c12` [Example 112, (S)-3-Methyl-2-{4′-[(3-methyl-4-pyridin-4-yl-benzofuran-2-carbonyl)-amino]-biphenyl-4-sulfonylamino}-butyric acid], the negative-log IC50 (pIC50) in experiment [1] is 5.57; in experiment [2] (setting [3]), 8.07.
With `CCc1ccc2oc(C(=O)Nc3ccc(-c4ccc(S(=O)(=O)N[C@H](C(=O)O)C(C)C)cc4)cc3)c(C)c2c1OC` [Example 86, N-[(4′-{[(5-Ethyl-4-methoxy-3-methyl-1-benzofuran-2-yl)carbonyl]amino}-1,1′-biphenyl-4-yl)sulfonyl]-L-valine], the negative-log IC50 (pIC50) in experiment [1] is 5.60; in experiment [2] (setting [3]) it was 8.42.
On the same counts, the results for `Cc1c(C(=O)Nc2ccc(-c3ccc(S(=O)(=O)N[C@H](C(=O)O)C(C)O)cc3)nc2)oc2cccc(NS(C)(=O)=O)c12` (stereo partly drawn) [Example 38, L-3-Hydroxy-2-(4-{5-[(4-methanesulfonylamino-3-methyl-benzofuran-2-carbonyl)-amino]-pyridin-2-yl}-benzenesulfonylamino)-butyric acid] are 5.05 and 7.55.
Consider `COc1c(Br)ccc2oc(C(=O)Nc3ccc(-c4ccc(S(=O)(=O)NC(C(=O)O)C(C)C)cc4)cc3)c(C)c12` (stereo in doubt) [Example 119, (R)-2-{4′-[(5-Bromo-4-methoxy-3-methyl-benzofuran-2-carbonyl)-amino]-biphenyl-4-sulfonylamino}-3-methyl-butyric acid], for which the pIC50 in experiment [1] was 6.16; in experiment [2] (setting [3]), 8.47.
